Experimental data: the NIST ThermoML archive (doi:10.1016/j.jct.2017.03.006)
± gives the expanded uncertainty stated by the source.

Legend:
[1] = 100 kPa, Liquid, Concentric cylinders viscometry
[2] = xn = mol fraction of the nth substance listed; conditions: Liquid, x1 = 1; for mass density: Vibrating tube method; for viscosity: Concentric cylinders viscometry

CCCCO [butan-1-ol]
[1]
Conditions	viscosity [mPa·s]
323.15 K	1.406 ± 0.029
333.15 K	1.134 ± 0.024

CCCCO [butan-1-ol] + Cc1ccc(C)c(C)c1
[2]
Conditions	mass density [kg/m3]	viscosity [mPa·s]
273.15 K, 100 kPa	824.6 ± 0.7	–
273.15 K, 1000 kPa	825.2 ± 0.7	–
273.15 K, 5000 kPa	827.7 ± 0.7	–
273.15 K, 10000 kPa	830.8 ± 0.7	–
273.15 K, 20000 kPa	836.7 ± 0.7	–
273.15 K, 30000 kPa	842.3 ± 0.7	–
273.15 K, 40000 kPa	847.6 ± 0.8	–
273.15 K, 50000 kPa	852.5 ± 0.8	–
273.15 K, 60000 kPa	857.2 ± 0.8	–
273.15 K, 70000 kPa	861.7 ± 0.8	–
273.15 K, 80000 kPa	866 ± 0.8	–
273.15 K, 90000 kPa	870.1 ± 0.9	–
273.15 K, 100000 kPa	874 ± 0.9	–
273.15 K, 120000 kPa	881.5 ± 0.9	–
273.15 K, 140000 kPa	888.5 ± 0.9	–
293.15 K, 100 kPa	809.6 ± 0.7	2.953 ± 0.06
293.15 K, 1000 kPa	810.2 ± 0.7	–
293.15 K, 5000 kPa	813.1 ± 0.7	–
293.15 K, 10000 kPa	816.5 ± 0.7	–
293.15 K, 20000 kPa	822.9 ± 0.7	–
293.15 K, 30000 kPa	829 ± 0.8	–
293.15 K, 40000 kPa	834.7 ± 0.8	–
293.15 K, 50000 kPa	840 ± 0.8	–
293.15 K, 60000 kPa	845 ± 0.8	–
293.15 K, 70000 kPa	849.8 ± 0.8	–
293.15 K, 80000 kPa	854.4 ± 0.9	–
293.15 K, 90000 kPa	858.7 ± 0.9	–
293.15 K, 100000 kPa	862.9 ± 0.9	–
293.15 K, 120000 kPa	870.8 ± 0.9	–
293.15 K, 140000 kPa	878.2 ± 1	–
303.15 K, 100 kPa	–	2.263 ± 0.046
313.15 K, 100 kPa	794.1 ± 0.7	1.769 ± 0.036
313.15 K, 1000 kPa	794.8 ± 0.7	–
313.15 K, 5000 kPa	798 ± 0.7	–
313.15 K, 10000 kPa	801.8 ± 0.7	–
313.15 K, 20000 kPa	808.9 ± 0.7	–
313.15 K, 30000 kPa	815.5 ± 0.8	–
313.15 K, 40000 kPa	821.6 ± 0.8	–
313.15 K, 50000 kPa	827.4 ± 0.8	–
313.15 K, 60000 kPa	832.7 ± 0.8	–
313.15 K, 70000 kPa	837.8 ± 0.9	–
313.15 K, 80000 kPa	842.7 ± 0.9	–
313.15 K, 90000 kPa	847.3 ± 0.9	–
313.15 K, 100000 kPa	851.7 ± 0.9	–
313.15 K, 120000 kPa	860 ± 1	–
313.15 K, 140000 kPa	867.8 ± 1	–
323.15 K, 100 kPa	–	1.406 ± 0.029
333.15 K, 100 kPa	778 ± 0.7	1.134 ± 0.024
333.15 K, 1000 kPa	778.8 ± 0.7	–
333.15 K, 5000 kPa	782.4 ± 0.7	–
333.15 K, 10000 kPa	786.5 ± 0.7	–
333.15 K, 20000 kPa	794.4 ± 0.7	–
333.15 K, 30000 kPa	801.6 ± 0.8	–
333.15 K, 40000 kPa	808.2 ± 0.8	–
333.15 K, 50000 kPa	814.4 ± 0.8	–
333.15 K, 60000 kPa	820.1 ± 0.8	–
333.15 K, 70000 kPa	825.6 ± 0.9	–
333.15 K, 80000 kPa	830.7 ± 0.9	–
333.15 K, 90000 kPa	835.6 ± 0.9	–
333.15 K, 100000 kPa	840.3 ± 1	–
333.15 K, 120000 kPa	849 ± 1	–
333.15 K, 140000 kPa	857.1 ± 1.1	–
